Laboratory results from patent publication US9193731B2, “Antimicrobial compounds and methods of making and using the same” (Melinta Therapeutics, Inc., priority 2009, dated 2015).

These compounds were tested on Escherichia coli strain ATCC25922 (assay: standard microdilution assay to determine minimum inhibitory concentrations (MICs)). Details: Escherichia coli strain ATCC25922, microdilution.
Format: cell-based
Procedure, shortened: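 Broth microdilution MIC against E. coli ATCC25922, following CLSI protocols, typically in a 100 microliter final volume. Results reported as +/− relative to a 16 micrograms/ml cutoff.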

SMILES | E. coli ATCC25922 MIC
COc1cc(-n2cc3cc(-c4cccc(OCCCN)c4)[nH]c3nc2=O)ccc1CNCCCNC(=N)N [Compound 1273] | + (a “+” indicates that the compound has an MIC value of 16 micrograms/ml or less)
CC(=O)NCCCS(=O)(=O)c1ccc(-c2cc3cn(-c4ccc(C(=O)NCCCNC(=N)N)cc4)c(=O)nc3[nH]2)cc1 [Compound 1274] | − (a “−” indicates that the compound has an MIC value greater than 16 micrograms/ml)
N=C(N)NCCCNCc1ccc(-n2cc3cc(-c4ccc(S(=O)(=O)CCCNC5CCCOC5)cc4)[nH]c3nc2=O)cc1 (stereo not shown) [Compound 1275] | + (a “+” indicates that the compound has an MIC value of 16 micrograms/ml or less)
N=C(N)NCCCNC(=O)c1ccc(-n2cc3cc(-c4ccc(S(=O)(=O)CCCNC5CCCNC5)cc4)[nH]c3nc2=O)cc1 (stereo not shown) [Compound 1276] | + (a “+” indicates that the compound has an MIC value of 16 micrograms/ml or less)
CC(=O)NCCCS(=O)(=O)c1ccc(-c2cc3cn(-c4ccc(CNCCCNC(=N)N)cc4)c(=O)nc3[nH]2)cc1 [Compound 1277] | − (a “−” indicates that the compound has an MIC value greater than 16 micrograms/ml)
Cc1cc(-n2cc3cc(-c4cccc(OCCCN)c4)[nH]c3nc2=O)ccc1CNCCCNC(=N)N [Compound 1280] | + (a “+” indicates that the compound has an MIC value of 16 micrograms/ml or less)
CC(C)(C)NCC(=O)Nc1ccc(-c2cc3cn(-c4ccc(C(=O)NCCCNC(=N)N)cc4)c(=O)nc3[nH]2)cc1 [Compound 1281] | + (a “+” indicates that the compound has an MIC value of 16 micrograms/ml or less)
N=C(N)NCCCNC(=O)c1ccc(-n2cc3cc(-c4ccc(S(=O)(=O)CCCNC5CCCOC5)cc4)[nH]c3nc2=O)cc1 (stereo not shown) [Compound 1284] | − (a “−” indicates that the compound has an MIC value greater than 16 micrograms/ml)
N=C(N)NCCCNCc1ccc(-n2cc3cc(-c4ccc(S(=O)(=O)CCCNC5CCNCC5)cc4)[nH]c3nc2=O)cc1 [Compound 1285] | + (a “+” indicates that the compound has an MIC value of 16 micrograms/ml or less)
N=C(N)NCCCNC(=O)Cn1cc2cc(-c3ccc(S(=O)(=O)NC4CCNCC4)cc3)[nH]c2nc1=O [Compound 1289] | − (a “−” indicates that the compound has an MIC value greater than 16 micrograms/ml)
N=C(N)NCCCNCc1ccc(-n2cc3cc(-c4ccc(NC(=O)CNC5CCNCC5)cc4)[nH]c3nc2=O)cc1 [Compound 1290] | + (a “+” indicates that the compound has an MIC value of 16 micrograms/ml or less)
N=C(N)N1CCC(NCCCS(=O)(=O)c2ccc(-c3cc4cn(-c5ccc(CNCCCN)cc5)c(=O)nc4[nH]3)cc2)C1 (stereo not shown) [Compound 1292] | + (a “+” indicates that the compound has an MIC value of 16 micrograms/ml or less)
N=C(N)NCCCNCc1ccc(-n2cc3cc(-c4ccc(S(=O)(=O)CCCNC5CCCNC5)cc4)[nH]c3nc2=O)cc1 (stereo not shown) [Compound 1293] | + (a “+” indicates that the compound has an MIC value of 16 micrograms/ml or less)
Cc1cc(-n2cc3cc(-c4ccc(S(=O)(=O)NC5CCCNC5)cc4)[nH]c3nc2=O)ccc1CNCCCNC(=N)N (stereo not shown) [Compound 1309] | + (a “+” indicates that the compound has an MIC value of 16 micrograms/ml or less)

Same assay, conditions: Escherichia coli, ATCC25922, Escherichia coli strain ATCC25922, microdilution; read-out: E. coli ATCC25922 MIC

SMILES | MIC [µg/mL]
NCCc1c[nH]c2cc(-n3cc4cc(CCS(=O)(=O)C5CCNCC5)[nH]c4nc3=O)ccc12 [Compound 1278] | > 16
NCCCc1c[nH]c2cc(-n3cc4cc(CCS(=O)(=O)C5CCNCC5)[nH]c4nc3=O)ccc12 [Compound 1282] | > 16
NCCCNC(=O)CCn1cc2cc(-c3ccc(S(=O)(=O)N[C@@H]4CCCNC4)cc3)[nH]c2nc1=O [Compound 1287] | > 16
NCCC(=O)NCCCn1cc2cc(-c3ccc(S(=O)(=O)N[C@@H]4CCCNC4)cc3)[nH]c2nc1=O [Compound 1298] | > 16
NCc1ccc(-n2cc3cc(C4C[C@@H](N)[C@@H](CO)O4)[nH]c3nc2=O)cc1 (stereo partly shown) [Compound 1301] | > 16
